Measurements published in US10398671B2, “Fatty acid formulations and methods of use thereof” (Children's Hospital & Research Center at Oakland, priority 2007, dated 2019).

Experiments:
[1] = test system: global apraxia/dyspraxia; assay: Case study Patient A: clinical observation of speech, coordination, tone and sensory symptoms; assay type: in vivo, human; settings: for speech clarity and energy level/stamina: coenzyme Q 100 mg/day, vitamin C 250 mg/day and alpha-lipoic acid 300 mg/day added together to regimen, within 1 week
Protocol: They were placed on omega 3/6/9 fatty acid therapy.
In addition Vitamin K (to prevent adverse effect of vitamin K antagonism by high dose vitamin E), a complete multi-vitamin combination (with selenium, zinc and high B-complex and additional fat soluble vitamins) was also added to the daily regimen.

[2] = cited from earlier work
[3] = Plasma alpha-d-tocopherol level, Patient A; assay type: in vivo, human; settings: despite high dose supplementation
Protocol: The vit E dose was increased over several weeks and is now in the range recommended for neurological complications of vit E deficiency (100-200 mg/kg/day alpha-d-tocopherol). Sokol et al. Gastroenterology 1993; 104(6):1727-35. […] All speech therapy and occupational therapy has been phased out due to this rapid and remarkable improvement within 5 months of beginning therapy, at which point it was felt by all evaluators to no longer be necessary.

Polyenylphosphatidylcholine
stearrhea (fat absorption) ([1]; 3 grams/day, within a week of supplementation): decreased in stearrhea

COC1=C(OC)C(=O)C(C/C=C(\C)CC/C=C(\C)CC/C=C(\C)CC/C=C(\C)CC/C=C(\C)CC/C=C(\C)CC/C=C(\C)CC/C=C(\C)CC/C=C(\C)CCC=C(C)C)=C(C)C1=O [coenzyme Q, 2,3-dimethoxy-5-methyl-6-polyprenyl-1,4-benzoquinone]
speech clarity and energy level/stamina [1]: increased clarity of speech and improved energy level/stamina

O=C(O)CCCCC1CCSS1 (stereo not drawn) [lipoic acid, α-lipoic acid]
speech clarity and energy level/stamina [1]: increased clarity of speech and improved energy level/stamina
pKa [2]: 4.7

C[C@@H]1[C@H](O)[C@@H](C)/C=C/C=C/CC/C=C/C=C/C=C/C=C/C(O[C@H]2O[C@H](C)[C@@H](O)[C@H](N)[C@@H]2O)CC2O[C@](O)(CC(O)C(O)CCC(O)CC(O)CC(O)CC(=O)O[C@H]1C)CC(O)C2C(=O)O (some centres unmarked) [nystatin]
neurologic benefits [1]: Further neurologic benefits

O=C1O[C@H]([C@@H](O)CO)C(O)=C1O [vitamin C, ascorbic acid]
speech clarity and energy level/stamina [1]: increased clarity of speech and improved energy level/stamina

C[C@]12C=CC(=O)C=C1CC[C@@H]1[C@@H]2C(=O)C[C@@]2(C)[C@H]1CC[C@]2(O)C(=O)CO [prednisone]
speech, coordination and behavior ([1]; oral, used for allergic reactions and asthma exacerbations triggered by food allergy): improvement in speech, coordination and behavior

Cc1c(C)c2c(c(C)c1O)CC[C@@](C)(CCC[C@H](C)CCC[C@H](C)CCCC(C)C)O2 [alpha-d-tocopherol]
change of plasma levels of alpha-d-tocopherol [3]: did not change
